Test results reported in patent publication US20200261584A1, “STABILIZED PROTEIN GEL PREPARATION” (TERUMO KABUSHIKI KAISHA, priority 2013, published 2020).

Test: Oxidative stress, Example 29 (α-hANP, hydrogen peroxide, HPLC)
Assay type: physicochemical
Conditions: 0.1 mg/mL, solution E pH 4.8, 0.2% hydrogen peroxide, 37° C., one hour
Protocol: A gel preparation 29-48 of formulation 48 containing 0.1 mg/mL of α-hANP was prepared in an amount of 500 μL in a microtube, in the same manner as in the preparing method in (1) of Example 2, while using a solution E (pH 4.8) containing 37.5 mg/mL of D-mannitol and 5 mg/mL of glycine, in place of the solution A. Then, 50 μL of 0.2% hydrogen peroxide was added to the gel preparation, followed by incubation at 37° C. for one hour. Immediately after the incubation, 200 μL of 0.4 M methionine and 250 μL of water were added to the sample, and the gel preparation was disintegrated by a microspatula. The sample was then centrifuged, the supernatant was filtered through a membrane filter to remove aggregates, and the amount of α-hANP contained in the solution was determined by the HPLC method. Note that this experiment was conducted with N=2, and the remaining rate of α-hANP was expressed based on the starting amount. Besides, as a control, an α-hANP solution prepared by dissolving α-hANP in the solution E so as to obtain a concentration of 0.1 mg/mL was subjected to the same process as above, exclusive of the disintegrating operation by the microspatula.

Remaining rate of α-hANP after loaded with oxidative stress, run 1: 65.4% | Remaining rate of α-hANP after loaded with oxidative stress, run 2: 64.7%
Structure (SMILES): CC[C@H](C)[C@@H]1NC(=O)[C@H](CCCNC(=N)N)NC(=O)[C@H](CC(=O)O)NC(=O)[C@H](CCSC)NC(=O)[C@H](CCCNC(=N)N)NC(=O)CNC(=O)CNC(=O)[C@H](Cc2ccccc2)NC(=O)[C@@H](NC(=O)[C@H](CO)NC(=O)[C@H](CO)NC(=O)[C@H](CCCNC(=N)N)NC(=O)[C@H](CCCNC(=N)N)NC(=O)[C@H](CC(C)C)NC(=O)[C@@H](N)CO)CSSC[C@@H](C(=O)N[C@@H](CC(N)=O)C(=O)N[C@@H](CO)C(=O)N[C@@H](Cc2ccccc2)C(=O)N[C@@H](CCCNC(=N)N)C(=O)N[C@@H](Cc2ccc(O)cc2)C(=O)O)NC(=O)CNC(=O)[C@H](CC(C)C)NC(=O)CNC(=O)[C@H](CO)NC(=O)[C@H](CCC(N)=O)NC(=O)[C@H](C)NC(=O)CNC1=O [α-hANP solution, α-human atrial natriuretic polypeptide]
